Converted amounts (≈) assume the structure as drawn. The source made the active and inactive calls. The calls are words filed in the database; no cut-off is given here.
Tests used:
[1] = test system: Staphylococcus aureus; test: Antibacterial activity against Methicillin-resistant Staphylococcus aureus N315 assessed as inhibition of bacterial growth by measuring salt resistance incubated for 24 hrs in the presence of 12.5 ug/ml Zn2+ and 24.3 ug/ml Mg2+ by Muller hinton broth based dilution assay; type: functional
[2] = test system: Acinetobacter baumannii; test: Antibacterial activity against Acinetobacter baumannii ATCC 17978 assessed as inhibition of bacterial growth by measuring salt resistance incubated for 24 hrs in the presence of 12.5 ug/ml Zn2+ and 175.5 ug/ml K+ by Muller hinton broth based dilution assay; type: functional
[3] = test system: Escherichia coli; test: Antibacterial activity Escherichia coli ATCC 25922 assessed as inhibition of bacterial growth incubated for 24 hrs in the presence of 0.78 ug/mL Zn2+ by Muller hinton broth based dilution assay; type: functional
[4] = test system: Staphylococcus aureus; test: Antibacterial activity against Methicillin-resistant Staphylococcus aureus NCTC10442 assessed as inhibition of bacterial growth by measuring salt resistance incubated for 24 hrs in the presence of 12.5 ug/ml Zn2+ and 3220 ug/ml Na+ by Muller hinton broth based dilution assay; type: functional
[5] = test system: Staphylococcus aureus; test: Antibacterial activity against Methicillin-resistant Staphylococcus aureus N315 assessed as inhibition of bacterial growth by measuring salt resistance incubated for 24 hrs in the presence of 12.5 ug/ml Zn2+ and 100 ug/ml Ca2+ by Muller hinton broth based dilution assay; type: functional
[6] = test system: Staphylococcus aureus; test: Antibacterial activity against Staphylococcus aureus ATCC 29213 assessed as inhibition of bacterial growth incubated for 24 hrs in the presence of 50 ug/mL Zn2+ by Muller hinton broth based dilution assay; type: functional
[7] = test system: Staphylococcus aureus; test: Antibacterial activity against Methicillin-resistant Staphylococcus aureus NCTC10442 assessed as inhibition of bacterial growth by measuring salt resistance incubated for 24 hrs in the presence of 12.5 ug/ml Zn2+ and 100 ug/ml Ca2+ by Muller hinton broth based dilution assay; type: functional
[8] = test system: Staphylococcus aureus; test: Antibacterial activity against Methicillin-resistant Staphylococcus aureus NCTC10442 assessed as inhibition of bacterial growth by measuring salt resistance incubated for 24 hrs in the presence of 12.5 ug/ml Zn2+ and 24.3 ug/ml Mg2+ by Muller hinton broth based dilution assay; type: functional
[9] = Hemolytic activity in rabbit RBC incubated for 1 hrs in the presence of 12.5 ug/mL Zn2+ by fluorescence based microplate reader assay; type: toxicity, cell-based, Oryctolagus cuniculus, Erythrocyte; settings: rabbit red blood cells (erythrocytes)
[10] = test system: Pseudomonas aeruginosa; test: Antibacterial activity Pseudomonas aeruginosa ATCC 9027 assessed as inhibition of bacterial growth incubated for 24 hrs in the presence of 12.5 ug/mL Zn2+ by Muller hinton broth based dilution assay; type: functional
[11] = test system: Pseudomonas aeruginosa; test: Antibacterial activity Pseudomonas aeruginosa ATCC 9027 assessed as inhibition of bacterial growth incubated for 24 hrs in the presence of 25 ug/mL Zn2+ by Muller hinton broth based dilution assay; type: functional
[12] = test system: Escherichia coli; test: Antibacterial activity against Escherichia coli ATCC 25922 assessed as inhibition of bacterial growth by measuring salt resistance incubated for 24 hrs in the presence of 12.5 ug/ml Zn2+ and 24.3 ug/ml Mg2+ by Muller hinton broth based dilution assay; type: functional
[13] = test system: Staphylococcus aureus; test: Antibacterial activity against Staphylococcus aureus ATCC 29213 assessed as inhibition of bacterial growth incubated for 24 hrs in the presence of 0.39 ug/mL Zn2+ by Muller hinton broth based dilution assay; type: functional
[14] = test system: Staphylococcus aureus; test: Antibacterial activity against Methicillin-resistant Staphylococcus aureus NCTC10442 assessed as inhibition of bacterial growth incubated for 24 hrs in the presence of 0.78 ug/mL Zn2+ by Muller hinton broth based dilution assay; type: functional
[15] = test system: Staphylococcus aureus; test: Antibacterial activity against Methicillin-resistant Staphylococcus aureus NCTC10442 assessed as inhibition of bacterial growth incubated for 24 hrs in the presence of 3.125 ug/mL Zn2+ by Muller hinton broth based dilution assay; type: functional
[16] = test system: Staphylococcus aureus; test: Antibacterial activity against Staphylococcus aureus ATCC 29213 assessed as inhibition of bacterial growth by measuring salt resistance incubated for 24 hrs in the presence of 12.5 ug/ml Zn2+ and 24.3 ug/ml Mg2+ by Muller hinton broth based dilution assay; type: functional
[17] = test system: Staphylococcus aureus; test: Antibacterial activity against Methicillin-resistant Staphylococcus aureus N315 assessed as inhibition of bacterial growth by measuring salt resistance incubated for 24 hrs in the presence of 12.5 ug/ml Zn2+ and 3220 ug/ml Na+ by Muller hinton broth based dilution assay; type: functional
[18] = test system: Staphylococcus aureus; test: Antibacterial activity against Staphylococcus aureus ATCC 29213 assessed as inhibition of bacterial growth incubated for 24 hrs in the presence of 6.25 ug/mL Zn2+ by Muller hinton broth based dilution assay; type: functional
[19] = test system: Staphylococcus aureus; test: Antibacterial activity against Methicillin-resistant Staphylococcus aureus N315 assessed as inhibition of bacterial growth by measuring salt resistance incubated for 24 hrs in the presence of 12.5 ug/ml Zn2+ and 175.5 ug/ml K+ by Muller hinton broth based dilution assay; type: functional
[20] = test system: Escherichia coli; test: Antibacterial activity Escherichia coli ATCC 25922 assessed as inhibition of bacterial growth incubated for 24 hrs in the presence of 3.125 ug/mL Zn2+ by Muller hinton broth based dilution assay; type: functional
[21] = test system: Pseudomonas aeruginosa; test: Antibacterial activity against Pseudomonas aeruginosa ATCC 9027 in C57BL/6 mouse model of bacterial keratitis assessed as log reduction in viable bacterial count in infected cornea at 0.5 % pre-infected with bacteria for 24 hrs followed by topical administration of compound four times a day for 3 days in the presence of 12.5 ug/ml of Zn2+; type: functional; settings: route top, time 3 day
[22] = test system: Lipopolysaccharide (LPS); test: Displacement of BODIPY-TR-cadaverin from Pseudomonas aeruginosa Lipopolysaccharide at 16 times of MIC incubated for 30 mins in the presence of 12.5 ug/ml Zn2+ by fluorescence based microplate reader analysis relative to control
[23] = test system: Cell membrane; test: Induction of cell membrane […] in Escherichia coli ATCC 25922 assessed as increase in fluorescence intensity at 2 times to 8 times of MIC measured for 1 hrs in the presence of 12.5 ug/ml Zn2+ by […] dye based assay; type: subcellular
[24] = test system: Lipopolysaccharide (LPS); test: Displacement of BODIPY-TR-cadaverin from Pseudomonas aeruginosa Lipopolysaccharide at 4 times of MIC incubated for 30 mins in the presence of 12.5 ug/ml Zn2+ by fluorescence based microplate reader analysis relative to control
[25] = test system: Pseudomonas aeruginosa; test: Antibacterial activity Pseudomonas aeruginosa ATCC 9027 assessed as inhibition of bacterial growth incubated for 24 hrs in the presence of 0.78 ug/mL Zn2+ by Muller hinton broth based dilution assay; type: functional
[26] = test system: Cell membrane; test: Induction of cell membrane […] in Staphylococcus aureus ATCC 29213 assessed as increase in fluorescence intensity at 2 times to 8 times of MIC measured for 1 hrs in the presence of 12.5 ug/ml Zn2+ by DiSC3 (5) dye based assay; type: subcellular
[27] = test system: Staphylococcus aureus; test: Antibacterial activity against Methicillin-resistant Staphylococcus aureus NCTC10442 assessed as inhibition of bacterial growth incubated for 24 hrs by Muller hinton broth based dilution assay; type: functional
[28] = test system: Staphylococcus aureus; test: Antibacterial activity against Staphylococcus aureus ATCC 29213 assessed as inhibition of bacterial growth by measuring salt resistance incubated for 24 hrs in the presence of 12.5 ug/ml Zn2+ and 175.5 ug/ml K+ by Muller hinton broth based dilution assay; type: functional

Question: With CC(C)=CCn1c2ccccc2c2c(OCC(O)CN(Cc3ccccn3)Cc3ccccn3)cccc21 (stereo not drawn) as the compound, how does the MIC [1] read?
Answer: The MIC was 1.56 µg/mL.

Question: What about the MIC [2] of the same compound?
Answer: The MIC was 0.78 µg/mL.

Question: And the MIC [3]?
Answer: The MIC was 6.25 µg/mL.

Question: And the MIC [4]?
Answer: The MIC was 1.56 µg/mL.

Question: And the MIC [5]?
Answer: The MIC was 3.12 µg/mL.

Question: What about the MIC [6] of the same compound?
Answer: The MIC was 0.78 µg/mL.

Question: What about the MIC [7] of the same compound?
Answer: The MIC was 3.12 µg/mL.

Question: What about the MIC [8] of the same compound?
Answer: Its MIC is 1.56 µg/mL.

Question: What about the HC50 at 1 h [9] of the same compound?
Answer: The HC50 at 1 h was > 200 µg/mL.

Question: What about the MIC [10] of the same compound?
Answer: Its MIC is 3.12 µg/mL.

Question: And the MIC [11]?
Answer: The MIC was 3.12 µg/mL.

Question: And the MIC [12]?
Answer: The MIC was 3.12 µg/mL.

Question: What about the MIC [13] of the same compound?
Answer: The MIC was 3.12 µg/mL.

Question: What about the MIC [14] of the same compound?
Answer: The MIC was 1.56 µg/mL.

Question: And the MIC [15]?
Answer: The MIC was 1.56 µg/mL.

Question: And the MIC [16]?
Answer: The MIC was 1.56 µg/mL.

Question: What about the MIC [17] of the same compound?
Answer: Its MIC is 0.78 µg/mL.

Question: What about the MIC [18] of the same compound?
Answer: Its MIC is 1.56 µg/mL.

Question: What about the MIC [19] of the same compound?
Answer: Its MIC is 0.78 µg/mL.

Question: What about the MIC [20] of the same compound?
Answer: Its MIC is 3.12 µg/mL.

Question: What about the “log(activity)” value [21] of the same compound?
Answer: Its value is 4.46.

Question: What about the Activity [22] of the same compound?
Answer: Its Activity is 91%.

Question: What about the Activity [23] of the same compound?
Answer: The Activity was “Active”.

Question: And the Activity [24]?
Answer: Its Activity is 59.5%.

Question: And the MIC [25]?
Answer: The MIC was > 50 µg/mL.

Question: And the Activity [26]?
Answer: The Activity was “Active”.

Question: And the MIC [27]?
Answer: The MIC was 1.56 µg/mL (≈ 3.08 µM).

Question: What about the MIC [28] of the same compound?
Answer: The MIC was 1.56 µg/mL.
